System: 941728-121-R-J1-PDC complex spheroid viability
Experiment: Anticancer human tumor 941728-121-R-J1-PDC patient-derived lung adenocarcinoma cell line growth inhibition [RAS]
Conditions: for IC50: curve of first compound; for viability, T/C: stronger effect = lower value; active = viability on the fitted dose curve at most 10% of control; inactive = the rest
Outline: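 Multi-cell-type spheroids: tumor cells plus HUVEC endothelial cells and mesenchymal stem cells. RAS-pathway inhibitors were combined with targeted agents, each dosed in half-log steps down from clinical Cmax, or from 10 microM when Cmax was unknown.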

[1] = second compound 0.0316 µM, first compound 0.0316 µM
[2] = second compound 0.0316 µM, first compound 0.1 µM
[3] = second compound 0.0316 µM, first compound 0.316 µM
[4] = second compound 0.0316 µM, first compound 1 µM
[5] = second compound 0.1 µM, first compound 0.0316 µM
[6] = second compound 0.1 µM, first compound 0.1 µM
[7] = second compound 0.1 µM, first compound 0.316 µM
[8] = second compound 0.1 µM, first compound 1 µM
[9] = second compound 0.316 µM, first compound 0.0316 µM
[10] = second compound 0.316 µM, first compound 0.1 µM
[11] = second compound 0.316 µM, first compound 0.316 µM
[12] = second compound 0.316 µM, first compound 1 µM
[13] = second compound 1 µM, first compound 0.0316 µM
[14] = second compound 1 µM, first compound 0.1 µM
[15] = second compound 1 µM, first compound 0.316 µM
[16] = second compound 1 µM, first compound 1 µM
[17] = second compound 3.16 µM, first compound 0.0316 µM
[18] = second compound 3.16 µM, first compound 0.1 µM
[19] = second compound 3.16 µM, first compound 0.316 µM
[20] = second compound 3.16 µM, first compound 1 µM
[21] = second compound 10 µM, first compound 0.0316 µM
[22] = second compound 10 µM, first compound 0.1 µM
[23] = second compound 10 µM, first compound 0.316 µM
[24] = second compound 10 µM, first compound 1 µM
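Note: spheroids exposed to compounds for 7 days before readout.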
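Throughout, for viability, T/C: 100% = DMSO vehicle control viability.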

C=CC(=O)N1CCN(c2nc(OCC3CCCN3C)nc3c(F)c(-c4nc(N)cc(C)c4C(F)(F)F)c(Cl)cc23)C(C)C1 (stereo unspecified) + C#Cc1c(F)ccc2cc(O)cc(-c3ncc4c(N5CC6CCC(C5)N6)nc(OCC56CCCN5CC(F)C6)nc4c3F)c12
inactive: viability, T/C (second compound 0.0316 µM, first compound 0.00316 µM) 22.3% | viability, T/C (second compound 0.0316 µM, first compound 0.01 µM) 20.1% | viability, T/C [1] 18.7% | viability, T/C [2] 21% | viability, T/C [3] 22.6% | viability, T/C [4] 21.2% | viability, T/C (second compound 0.1 µM, first compound 0.00316 µM) 22.9% | viability, T/C (second compound 0.1 µM, first compound 0.01 µM) 19.5% | viability, T/C [5] 21.8% | viability, T/C [6] 20.7% | viability, T/C [7] 19.8% | viability, T/C [8] 23.9% | viability, T/C (second compound 0.316 µM, first compound 0.00316 µM) 22.1% | viability, T/C (second compound 0.316 µM, first compound 0.01 µM) 22.2% | viability, T/C [9] 21% | viability, T/C [10] 23.4% | viability, T/C [11] 20.7% | viability, T/C [12] 21.4% | viability, T/C (second compound 1 µM, first compound 0.00316 µM) 21.3% | viability, T/C (second compound 1 µM, first compound 0.01 µM) 19.5% | viability, T/C [13] 22% | viability, T/C [14] 21.5% | viability, T/C [15] 22.2% | viability, T/C [16] 22.5% | viability, T/C (second compound 3.16 µM, first compound 0.00316 µM) 22.8% | viability, T/C (second compound 3.16 µM, first compound 0.01 µM) 20.1% | viability, T/C [17] 22% | viability, T/C [18] 20.3% | viability, T/C [19] 22% | viability, T/C [20] 22.3% | viability, T/C (second compound 10 µM, first compound 0.00316 µM) 21.9% | viability, T/C (second compound 10 µM, first compound 0.01 µM) 21.1% | viability, T/C [21] 17.5% | viability, T/C [22] 17.8% | viability, T/C [23] 18.2% | viability, T/C [24] 14.7%
< 3.16 nM: IC50 (second compound 0.0316 µM) | IC50 (second compound 0.1 µM) | IC50 (second compound 0.316 µM) | IC50 (second compound 1 µM) | IC50 (second compound 3.16 µM) | IC50 (second compound 10 µM)

CC(=O)OC12COC1CC(O)C1(C)C(=O)C(O)C3=C(C)C(OC(=O)C(O)C(NC(=O)OC(C)(C)C)c4ccccc4)CC(O)(C(OC(=O)c4ccccc4)C21)C3(C)C (stereo unspecified) + C#Cc1c(F)ccc2cc(O)cc(-c3ncc4c(N5CC6CCC(C5)N6)nc(OCC56CCCN5CC(F)C6)nc4c3F)c12
inactive: viability, T/C [1] 39.9% | viability, T/C [2] 39.7% | viability, T/C [3] 39.7% | viability, T/C [4] 37.6% | viability, T/C (second compound 0.0316 µM, first compound 3.16 µM) 42.7% | viability, T/C (second compound 0.0316 µM, first compound 10 µM) 41.7% | viability, T/C [5] 41.8% | viability, T/C [6] 36.1% | viability, T/C [7] 30.3% | viability, T/C [8] 41.6% | viability, T/C (second compound 0.1 µM, first compound 3.16 µM) 38.2% | viability, T/C (second compound 0.1 µM, first compound 10 µM) 39.1% | viability, T/C [9] 30.5% | viability, T/C [10] 36.8% | viability, T/C [11] 32.6% | viability, T/C [12] 31.2% | viability, T/C (second compound 0.316 µM, first compound 3.16 µM) 33.3% | viability, T/C (second compound 0.316 µM, first compound 10 µM) 36.7% | viability, T/C [13] 30.6% | viability, T/C [14] 32.3% | viability, T/C [15] 27.8% | viability, T/C [16] 24.6% | viability, T/C (second compound 1 µM, first compound 3.16 µM) 28.1% | viability, T/C (second compound 1 µM, first compound 10 µM) 31% | viability, T/C [17] 22.9% | viability, T/C [18] 26.7% | viability, T/C [19] 23.2% | viability, T/C [20] 21.7% | viability, T/C (second compound 3.16 µM, first compound 3.16 µM) 22.8% | viability, T/C (second compound 3.16 µM, first compound 10 µM) 25.7% | viability, T/C [21] 16.2% | viability, T/C [22] 14.9% | viability, T/C [23] 14.1% | viability, T/C [24] 14% | viability, T/C (second compound 10 µM, first compound 3.16 µM) 15.3% | viability, T/C (second compound 10 µM, first compound 10 µM) 16%
< 31.6 nM: IC50 (second compound 0.0316 µM) | IC50 (second compound 0.1 µM) | IC50 (second compound 0.316 µM) | IC50 (second compound 1 µM) | IC50 (second compound 3.16 µM) | IC50 (second compound 10 µM)

CCc1c2c(nc3ccc(O)cc13)-c1cc3c(c(=O)n1C2)COC(=O)[C@]3(O)CC + C#Cc1c(F)ccc2cc(O)cc(-c3ncc4c(N5CC6CCC(C5)N6)nc(OCC56CCCN5CC(F)C6)nc4c3F)c12
26.2 nM: IC50 (second compound 0.0316 µM)
active: viability, T/C (second compound 10 µM, first compound 0.3 µM) 8.73%
< 0.949 nM: IC50 (second compound 0.316 µM) | IC50 (second compound 1 µM) | IC50 (second compound 3.16 µM) | IC50 (second compound 10 µM)
inactive: viability, T/C (second compound 0.0316 µM, first compound 0.000949 µM) 77.8% | viability, T/C (second compound 0.0316 µM, first compound 0.003 µM) 61.1% | viability, T/C (second compound 0.0316 µM, first compound 0.00949 µM) 54.1% | viability, T/C (second compound 0.0316 µM, first compound 0.03 µM) 49.8% | viability, T/C (second compound 0.0316 µM, first compound 0.0949 µM) 51.6% | viability, T/C (second compound 0.0316 µM, first compound 0.3 µM) 40.5% | viability, T/C (second compound 0.1 µM, first compound 0.000949 µM) 69.4% | viability, T/C (second compound 0.1 µM, first compound 0.003 µM) 58.8% | viability, T/C (second compound 0.1 µM, first compound 0.00949 µM) 45% | viability, T/C (second compound 0.1 µM, first compound 0.03 µM) 53.6% | viability, T/C (second compound 0.1 µM, first compound 0.0949 µM) 48.4% | viability, T/C (second compound 0.1 µM, first compound 0.3 µM) 39.9% | viability, T/C (second compound 0.316 µM, first compound 0.000949 µM) 52.9% | viability, T/C (second compound 0.316 µM, first compound 0.003 µM) 42.4% | viability, T/C (second compound 0.316 µM, first compound 0.00949 µM) 42.5% | viability, T/C (second compound 0.316 µM, first compound 0.03 µM) 42.6% | viability, T/C (second compound 0.316 µM, first compound 0.0949 µM) 44.7% | viability, T/C (second compound 0.316 µM, first compound 0.3 µM) 34.6% | viability, T/C (second compound 1 µM, first compound 0.000949 µM) 34.8% | viability, T/C (second compound 1 µM, first compound 0.003 µM) 37.9% | viability, T/C (second compound 1 µM, first compound 0.00949 µM) 30.6% | viability, T/C (second compound 1 µM, first compound 0.03 µM) 31.8% | viability, T/C (second compound 1 µM, first compound 0.0949 µM) 32.4% | viability, T/C (second compound 1 µM, first compound 0.3 µM) 29% | viability, T/C (second compound 3.16 µM, first compound 0.000949 µM) 25.6% | viability, T/C (second compound 3.16 µM, first compound 0.003 µM) 26.1% | viability, T/C (second compound 3.16 µM, first compound 0.00949 µM) 26.7% | viability, T/C (second compound 3.16 µM, first compound 0.03 µM) 23.5% | viability, T/C (second compound 3.16 µM, first compound 0.0949 µM) 21.4% | viability, T/C (second compound 3.16 µM, first compound 0.3 µM) 19% | viability, T/C (second compound 10 µM, first compound 0.000949 µM) 21.9% | viability, T/C (second compound 10 µM, first compound 0.003 µM) 18.5% | viability, T/C (second compound 10 µM, first compound 0.00949 µM) 18.6% | viability, T/C (second compound 10 µM, first compound 0.03 µM) 14.8% | viability, T/C (second compound 10 µM, first compound 0.0949 µM) 13.3%
12.2 nM: IC50 (second compound 0.1 µM)
